Columns and labels:
Assay in all cases: SelectScreen Z'LYTE kinase profiling
Type in all cases: biochemical
Conditions in all cases: ATP at apparent KM
[1] = molecular target: T1, PRKCI (PKC iota) (Homo sapiens, UniProt P41743)
T1 sequence (P41743 1-596): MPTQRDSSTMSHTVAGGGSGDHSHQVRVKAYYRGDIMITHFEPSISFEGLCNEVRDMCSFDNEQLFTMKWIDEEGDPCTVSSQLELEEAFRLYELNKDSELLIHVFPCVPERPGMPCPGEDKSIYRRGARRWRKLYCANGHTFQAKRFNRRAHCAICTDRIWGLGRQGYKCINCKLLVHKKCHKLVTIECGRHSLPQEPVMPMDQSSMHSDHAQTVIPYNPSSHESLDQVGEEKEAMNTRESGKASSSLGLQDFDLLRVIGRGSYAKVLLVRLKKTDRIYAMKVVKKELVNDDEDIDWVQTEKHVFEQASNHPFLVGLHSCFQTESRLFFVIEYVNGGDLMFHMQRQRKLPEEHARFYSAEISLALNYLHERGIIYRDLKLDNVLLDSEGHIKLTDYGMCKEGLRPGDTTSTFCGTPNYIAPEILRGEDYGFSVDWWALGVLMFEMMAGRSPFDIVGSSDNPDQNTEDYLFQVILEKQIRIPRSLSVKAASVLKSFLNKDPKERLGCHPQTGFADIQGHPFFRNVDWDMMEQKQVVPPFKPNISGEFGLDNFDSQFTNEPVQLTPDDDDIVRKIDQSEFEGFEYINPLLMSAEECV
Description: (§1) protein kinases at a compound concentration of 1 µM. Measurements were performed in duplicates
(§2) and at the particular apparent ATP KM of each individual kinase employing the activity based Z’LYTE®
(§3) kinase assay of the SelectScreen® Kinase Profiling Services (ThermoFisher Scientific).
(§4) kinases at a compound concentration of 1 µM. Measurements were performed in duplicates and at
(§5) the particular apparent ATP KM of each individual kinase employing the activity based Z’LYTE® kinase
(§6) assay of the SelectScreen® Kinase Profiling Services (ThermoFisher Scientific).

[2] = molecular target: IGF1R (Homo sapiens, UniProt P08069)
IGF1R, sequence (P08069 31-1367): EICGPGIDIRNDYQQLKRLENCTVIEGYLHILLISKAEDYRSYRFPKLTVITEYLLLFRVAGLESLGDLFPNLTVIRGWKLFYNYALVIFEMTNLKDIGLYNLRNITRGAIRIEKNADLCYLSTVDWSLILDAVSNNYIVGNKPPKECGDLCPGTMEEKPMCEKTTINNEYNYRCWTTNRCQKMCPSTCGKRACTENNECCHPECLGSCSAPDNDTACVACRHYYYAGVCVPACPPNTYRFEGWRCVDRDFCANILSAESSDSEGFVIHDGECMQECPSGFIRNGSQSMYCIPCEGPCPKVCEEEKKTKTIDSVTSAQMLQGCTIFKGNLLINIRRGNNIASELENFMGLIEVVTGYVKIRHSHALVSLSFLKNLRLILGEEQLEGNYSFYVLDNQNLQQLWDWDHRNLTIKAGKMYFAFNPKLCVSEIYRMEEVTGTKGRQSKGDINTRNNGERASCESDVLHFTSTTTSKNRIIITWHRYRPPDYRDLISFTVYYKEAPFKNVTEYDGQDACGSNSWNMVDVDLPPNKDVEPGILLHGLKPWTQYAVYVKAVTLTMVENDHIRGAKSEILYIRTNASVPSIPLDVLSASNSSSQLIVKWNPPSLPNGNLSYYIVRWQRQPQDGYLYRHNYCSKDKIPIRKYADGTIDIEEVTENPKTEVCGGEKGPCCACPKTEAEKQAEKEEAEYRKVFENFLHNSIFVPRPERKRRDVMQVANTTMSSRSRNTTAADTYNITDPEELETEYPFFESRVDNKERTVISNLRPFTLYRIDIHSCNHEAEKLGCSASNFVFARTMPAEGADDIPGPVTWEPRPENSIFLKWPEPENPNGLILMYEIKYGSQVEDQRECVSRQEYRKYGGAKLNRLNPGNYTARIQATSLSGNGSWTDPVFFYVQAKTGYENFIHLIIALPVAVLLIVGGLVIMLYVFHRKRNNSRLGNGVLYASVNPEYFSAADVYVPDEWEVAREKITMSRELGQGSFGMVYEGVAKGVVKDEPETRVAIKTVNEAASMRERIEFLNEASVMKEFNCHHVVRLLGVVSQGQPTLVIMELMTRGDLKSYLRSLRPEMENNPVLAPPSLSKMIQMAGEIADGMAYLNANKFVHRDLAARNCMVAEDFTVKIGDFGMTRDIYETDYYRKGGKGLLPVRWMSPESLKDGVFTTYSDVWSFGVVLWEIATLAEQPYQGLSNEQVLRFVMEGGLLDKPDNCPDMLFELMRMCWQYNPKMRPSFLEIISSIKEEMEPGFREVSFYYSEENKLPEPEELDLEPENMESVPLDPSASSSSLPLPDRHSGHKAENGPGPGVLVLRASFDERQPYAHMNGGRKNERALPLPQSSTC

[3] = molecular target: PRKCD (PKC delta) (Homo sapiens, UniProt Q05655)
PRKCD (PKC delta), sequence (Q05655 whole entry): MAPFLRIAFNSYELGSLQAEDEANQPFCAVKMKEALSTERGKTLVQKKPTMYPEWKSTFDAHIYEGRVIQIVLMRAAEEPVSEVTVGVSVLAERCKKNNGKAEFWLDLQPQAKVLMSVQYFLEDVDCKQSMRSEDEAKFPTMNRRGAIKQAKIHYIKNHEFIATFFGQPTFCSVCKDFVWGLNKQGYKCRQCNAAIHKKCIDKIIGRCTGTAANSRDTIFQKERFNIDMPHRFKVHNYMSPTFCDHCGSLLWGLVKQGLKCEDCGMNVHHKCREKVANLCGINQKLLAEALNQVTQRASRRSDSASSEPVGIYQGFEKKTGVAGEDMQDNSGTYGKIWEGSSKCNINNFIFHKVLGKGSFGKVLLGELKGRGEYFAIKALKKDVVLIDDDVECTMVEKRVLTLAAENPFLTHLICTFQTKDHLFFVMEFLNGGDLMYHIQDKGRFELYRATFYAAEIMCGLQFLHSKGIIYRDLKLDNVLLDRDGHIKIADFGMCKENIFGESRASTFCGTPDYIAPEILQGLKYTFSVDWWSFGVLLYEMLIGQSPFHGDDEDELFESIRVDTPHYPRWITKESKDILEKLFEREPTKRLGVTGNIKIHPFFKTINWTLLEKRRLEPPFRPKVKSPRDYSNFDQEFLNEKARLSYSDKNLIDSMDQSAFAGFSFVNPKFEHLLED
Description: as §1, §2, §3, §4, §5, §6

[4] = molecular target: T2, TXK (Homo sapiens, UniProt P42681)
T2 sequence (P42681 1-527): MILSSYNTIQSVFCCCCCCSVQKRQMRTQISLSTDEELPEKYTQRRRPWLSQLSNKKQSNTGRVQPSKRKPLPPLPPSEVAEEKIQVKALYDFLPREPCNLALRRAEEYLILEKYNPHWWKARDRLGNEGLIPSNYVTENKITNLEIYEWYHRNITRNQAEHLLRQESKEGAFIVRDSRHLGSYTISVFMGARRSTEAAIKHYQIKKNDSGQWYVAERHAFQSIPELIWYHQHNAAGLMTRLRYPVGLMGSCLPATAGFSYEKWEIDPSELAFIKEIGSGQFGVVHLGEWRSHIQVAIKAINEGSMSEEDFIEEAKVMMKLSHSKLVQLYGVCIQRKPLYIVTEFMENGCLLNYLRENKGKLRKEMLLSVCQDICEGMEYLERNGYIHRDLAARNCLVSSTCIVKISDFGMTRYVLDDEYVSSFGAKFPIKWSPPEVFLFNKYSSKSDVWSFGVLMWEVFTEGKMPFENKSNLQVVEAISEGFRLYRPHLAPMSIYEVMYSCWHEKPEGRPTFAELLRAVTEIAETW
Description: as §1, §2, §3, §4, §5, §6

[5] = molecular target: T3, PRKCN (PKD3) (Homo sapiens, UniProt O94806)
T3 sequence (O94806 1-890): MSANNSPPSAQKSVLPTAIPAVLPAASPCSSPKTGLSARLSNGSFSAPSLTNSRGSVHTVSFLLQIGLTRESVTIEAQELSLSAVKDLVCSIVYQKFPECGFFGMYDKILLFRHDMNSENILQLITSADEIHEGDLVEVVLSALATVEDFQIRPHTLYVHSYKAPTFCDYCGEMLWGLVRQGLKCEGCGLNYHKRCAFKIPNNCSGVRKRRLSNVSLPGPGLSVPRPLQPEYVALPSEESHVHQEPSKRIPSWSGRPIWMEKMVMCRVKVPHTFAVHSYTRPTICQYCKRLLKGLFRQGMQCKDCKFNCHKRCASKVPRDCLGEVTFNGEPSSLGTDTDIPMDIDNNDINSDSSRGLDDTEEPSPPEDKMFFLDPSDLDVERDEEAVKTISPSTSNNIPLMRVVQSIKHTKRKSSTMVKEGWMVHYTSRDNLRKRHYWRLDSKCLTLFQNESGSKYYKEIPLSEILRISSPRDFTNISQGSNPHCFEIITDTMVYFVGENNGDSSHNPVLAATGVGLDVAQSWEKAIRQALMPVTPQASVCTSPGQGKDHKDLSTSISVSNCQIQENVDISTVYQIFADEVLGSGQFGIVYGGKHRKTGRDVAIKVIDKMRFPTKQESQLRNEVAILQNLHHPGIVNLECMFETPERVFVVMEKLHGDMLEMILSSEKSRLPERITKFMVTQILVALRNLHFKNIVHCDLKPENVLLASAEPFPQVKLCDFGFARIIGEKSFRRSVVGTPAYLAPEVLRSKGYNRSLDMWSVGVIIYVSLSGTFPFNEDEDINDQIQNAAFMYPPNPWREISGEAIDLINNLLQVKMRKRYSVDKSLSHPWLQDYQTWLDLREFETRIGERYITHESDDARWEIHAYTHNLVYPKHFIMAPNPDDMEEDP
Description: as §1, §2, §3, §4, §5, §6

[6] = molecular target: AMPK A2/B1/G1 (Homo sapiens, UniProt P54646)
AMPK A2/B1/G1, sequence (P54646 whole entry): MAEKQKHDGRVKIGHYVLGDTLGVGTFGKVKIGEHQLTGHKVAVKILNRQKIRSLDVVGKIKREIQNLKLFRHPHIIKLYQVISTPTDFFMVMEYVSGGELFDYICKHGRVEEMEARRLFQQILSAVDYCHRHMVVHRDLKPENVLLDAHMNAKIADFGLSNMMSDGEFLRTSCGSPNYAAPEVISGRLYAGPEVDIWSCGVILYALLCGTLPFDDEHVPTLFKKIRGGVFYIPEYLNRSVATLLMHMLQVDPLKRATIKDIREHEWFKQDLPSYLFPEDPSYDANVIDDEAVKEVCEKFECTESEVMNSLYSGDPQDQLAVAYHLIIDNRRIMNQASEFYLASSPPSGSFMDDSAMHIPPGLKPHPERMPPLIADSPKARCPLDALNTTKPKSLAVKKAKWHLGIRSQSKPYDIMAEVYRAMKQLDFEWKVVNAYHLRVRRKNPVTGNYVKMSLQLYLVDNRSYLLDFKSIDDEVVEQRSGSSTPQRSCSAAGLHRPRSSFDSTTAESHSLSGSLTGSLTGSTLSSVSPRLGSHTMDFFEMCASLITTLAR
AMPK A2/B1/G1, sequence (Q9Y478 whole entry partner): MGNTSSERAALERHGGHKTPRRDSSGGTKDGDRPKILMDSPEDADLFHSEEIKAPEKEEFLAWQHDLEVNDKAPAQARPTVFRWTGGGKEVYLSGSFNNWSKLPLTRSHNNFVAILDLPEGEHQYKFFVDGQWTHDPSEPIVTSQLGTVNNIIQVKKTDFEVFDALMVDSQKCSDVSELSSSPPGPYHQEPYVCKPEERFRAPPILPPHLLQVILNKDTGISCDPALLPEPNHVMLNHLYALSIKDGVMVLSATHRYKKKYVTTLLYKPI
AMPK A2/B1/G1, sequence (P54619 whole entry partner): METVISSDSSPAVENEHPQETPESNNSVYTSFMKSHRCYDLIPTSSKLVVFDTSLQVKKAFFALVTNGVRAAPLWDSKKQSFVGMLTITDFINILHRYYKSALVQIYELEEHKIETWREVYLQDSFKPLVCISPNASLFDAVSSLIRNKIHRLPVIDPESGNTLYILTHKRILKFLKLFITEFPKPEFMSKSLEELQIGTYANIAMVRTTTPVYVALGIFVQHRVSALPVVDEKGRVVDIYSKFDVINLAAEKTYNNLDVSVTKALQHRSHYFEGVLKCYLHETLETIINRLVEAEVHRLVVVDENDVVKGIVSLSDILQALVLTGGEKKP
Description: as §1, §2, §3, §4, §5, §6

[7] = molecular target: MARK3 (Homo sapiens, UniProt P27448)
MARK3, sequence (P27448 whole entry): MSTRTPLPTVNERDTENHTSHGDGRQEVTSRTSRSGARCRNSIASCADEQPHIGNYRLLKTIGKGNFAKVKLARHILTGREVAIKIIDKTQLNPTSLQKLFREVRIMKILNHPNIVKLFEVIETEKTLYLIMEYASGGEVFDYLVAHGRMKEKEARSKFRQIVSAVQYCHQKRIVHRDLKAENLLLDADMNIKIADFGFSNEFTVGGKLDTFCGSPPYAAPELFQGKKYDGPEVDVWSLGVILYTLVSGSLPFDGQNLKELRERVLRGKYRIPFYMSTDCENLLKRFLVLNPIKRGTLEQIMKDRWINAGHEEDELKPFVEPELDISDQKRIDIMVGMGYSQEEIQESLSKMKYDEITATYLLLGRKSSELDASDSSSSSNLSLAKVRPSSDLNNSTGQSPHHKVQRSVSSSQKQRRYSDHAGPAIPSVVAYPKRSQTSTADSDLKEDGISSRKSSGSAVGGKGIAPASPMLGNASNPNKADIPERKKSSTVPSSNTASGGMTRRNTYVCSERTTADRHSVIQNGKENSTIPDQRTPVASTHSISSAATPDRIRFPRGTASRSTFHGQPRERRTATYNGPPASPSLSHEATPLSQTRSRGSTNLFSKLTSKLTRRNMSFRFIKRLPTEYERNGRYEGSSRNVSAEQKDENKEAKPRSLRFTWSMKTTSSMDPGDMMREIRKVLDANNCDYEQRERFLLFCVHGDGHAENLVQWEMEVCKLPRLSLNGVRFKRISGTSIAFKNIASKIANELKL
Description: as §1, §2, §3, §4, §5, §6

[8] = molecular target: BTK (Homo sapiens, UniProt Q06187)
BTK, sequence (Q06187 whole entry): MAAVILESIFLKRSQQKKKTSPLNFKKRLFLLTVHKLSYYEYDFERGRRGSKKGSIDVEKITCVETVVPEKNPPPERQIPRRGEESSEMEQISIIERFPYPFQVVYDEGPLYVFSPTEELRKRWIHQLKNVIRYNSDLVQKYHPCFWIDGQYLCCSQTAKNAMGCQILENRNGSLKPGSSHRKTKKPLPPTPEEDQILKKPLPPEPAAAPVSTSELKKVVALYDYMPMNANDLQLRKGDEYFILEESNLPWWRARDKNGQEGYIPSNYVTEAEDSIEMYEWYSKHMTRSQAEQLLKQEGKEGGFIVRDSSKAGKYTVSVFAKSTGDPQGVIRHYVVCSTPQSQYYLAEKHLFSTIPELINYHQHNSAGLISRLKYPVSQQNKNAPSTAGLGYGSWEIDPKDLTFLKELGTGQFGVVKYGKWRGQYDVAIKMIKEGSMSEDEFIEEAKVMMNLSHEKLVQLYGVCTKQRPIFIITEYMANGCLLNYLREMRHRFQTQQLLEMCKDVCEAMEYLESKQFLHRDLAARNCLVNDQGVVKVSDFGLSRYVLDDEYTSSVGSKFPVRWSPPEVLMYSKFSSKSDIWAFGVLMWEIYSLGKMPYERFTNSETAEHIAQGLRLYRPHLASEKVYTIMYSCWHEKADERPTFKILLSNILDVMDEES
Description: as §1, §2, §3, §4, §5, §6

[9] = molecular target: T4, ITK (Homo sapiens, UniProt Q08881)
T4 sequence (Q08881 1-620): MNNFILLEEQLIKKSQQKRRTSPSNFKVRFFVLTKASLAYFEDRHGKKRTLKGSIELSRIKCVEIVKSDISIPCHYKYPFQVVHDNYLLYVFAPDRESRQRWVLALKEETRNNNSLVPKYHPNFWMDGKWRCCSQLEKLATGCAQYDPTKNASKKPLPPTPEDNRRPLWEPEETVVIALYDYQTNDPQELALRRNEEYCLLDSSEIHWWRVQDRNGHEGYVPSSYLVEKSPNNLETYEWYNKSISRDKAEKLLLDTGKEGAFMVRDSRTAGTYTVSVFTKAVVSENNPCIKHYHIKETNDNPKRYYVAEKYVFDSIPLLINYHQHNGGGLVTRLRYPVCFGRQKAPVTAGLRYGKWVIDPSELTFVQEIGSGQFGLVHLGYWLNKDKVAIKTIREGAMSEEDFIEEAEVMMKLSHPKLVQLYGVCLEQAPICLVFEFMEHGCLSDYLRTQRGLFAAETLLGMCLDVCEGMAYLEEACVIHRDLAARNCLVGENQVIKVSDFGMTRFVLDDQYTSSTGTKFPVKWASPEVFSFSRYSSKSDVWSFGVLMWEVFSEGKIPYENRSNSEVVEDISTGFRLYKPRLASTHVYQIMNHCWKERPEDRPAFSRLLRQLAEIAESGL
Description: as §1, §2, §3, §4, §5, §6

SMILES | inhibition at 1 µM [1] | inhibition at 1 µM [2] | inhibition at 1 µM [3] | inhibition at 1 µM [4] | inhibition at 1 µM [5] | inhibition at 1 µM [6] | inhibition at 1 µM [7] | inhibition at 1 µM [8] | inhibition at 1 µM [9]
C=CC(=O)Nc1cccc(C(=O)NC2CCN(Cc3ccc(-c4nc5cc[nH]c(=O)c5cc4-c4ccccc4)cc3)CC2)c1 [30b] | -9% | 1% | 9% | 2% | 14% | 40% | 3% | 22% | 1%
C=CC(=O)Nc1cc(NC(=O)NC2CCN(Cc3ccc(-c4nc5cc[nH]c(=O)c5cc4-c4ccccc4)cc3)CC2)ccc1Cl [compound 27] | 5% | 7% | 6% | -9% | 16% | 77% | 3% | 10% | 8%
C=CC(=O)Nc1ccc2c(c1)n(C1CCN(Cc3ccc(-c4nc5cc[nH]c(=O)c5cc4-c4ccccc4)cc3)CC1)c(=O)n2C [24b] | 3% | 6% | 0% | -5% | 10% | 20% | -1% | 12% | -9%

Reference: PMC6430017, “Structural and chemical insights into the covalent-allosteric inhibition of the protein kinase Akt” (Chemical Science, 2019)
